Measurements: patent publication US20100120690A1, “Polypeptides Having Antimicrobial Activity and Polynucleotides Encoding Same” (Novozymes Adenium Biotech A/S, priority 2005, published 2010)

tested on: Staphylococcus carnosus ATCC51365; experiment: Yeast screening assay: radial diffusion assay of yeast supernatants; assay type: cell-based; parameters: key: An activity of 3 is better than Plectasin; An activity of 2 corresponds to the activity of Plectasin; 1 is worse than Plectasin; settings: yeast supernatant, clearing zone in radial diffusion assay
Experimental: A range of antimicrobial polypeptides, which are variants of SEQ ID NO: 1 (Plectasin), were tested for antimicrobial activity by expressing them in S. cerevisae and screening the supernatant of the yeast transformants for antimicrobial activity against Staphylococcus carnosus ATCC51365.
Radial Diffusion Assay was carried out as described in Methods in Molecular Biology, Vol. 78, Antibacterial peptide protocol, William M. Shafer, Human Press.
200-300 yeast transformant colonies were plated on 14 cm round plates containing 25 mL SC growth medium supplemented with 1.5% galactose, 0.5% glucose and 1.5% agarose. Plates were incubated for three hours at room temperature, overlaid with 25 mL of the same growth medium and allowed to grow for three days at 30° C. Then the plates were overlaid with 25 mL of LB growth medium containing 1.5% agarose and 10^5 cells of the indicator strain Staphylococcus carnosus and incubated at 30° C. overnight to allow growth of the bacterial cells. Next day, the plates were stained with 1.5 mM MTT to facilitate visualization of the clearing zones.
Yeast colonies creating clearing zones were transferred to microtiter plates containing 200 micro-L of SC growth medium supplemented with 2% glucose and ampicillin (100 mg/L). Such plates designated “master plates” were incubated for 2 days at 30° C. with shaking at 450 rpm to allow yeast growth.
10 micro-L SC growth medium from each well of the master plates were transferred to new microtiter plates containing 200 micro-L SC growth medium with 1.5% galactose and 0.5% glucose. These plates were called daughter plates and were incubated for 3 days at 30° C. under 450 rpm shaking to allow yeast growth and peptide synthesis.
Finally a Radial Diffusion Assay (RDA) was performed following the protocol described in Methods in Molecular Biology to analyse and quantify the antimicrobial activity of the yeast supernatants against S. carnosus.
Briefly, 30 mL of minimal underlay medium containing 1% agarose and 5×10^5 cfu/mL of S. carnosus was poured in an omnitray plate (Nunc, 242811). A Nunc TSP plate (#445497) was inserted immediately on the plate to allow a 96 well pattern formation. Once the media had solidified, the TSP plate was removed and 10 micro-L of yeast supernatant samples were applied on the holes. Plates were incubated 3 hours at 37° C. and overlaid with 15 mL of LB agar growth medium. Finally, plates were incubated overnight at 37° C. and coloured with 1.5 mM MTT to visualize the clearing zones.
Inspection and measurements of the clearing zones was performed on the plates. The corresponding yeast clones resulting in clearing zones of similar or increased size than the clones encoding for wild type plectasin were picked from the master plates and transferred to agar plates containing SC growth medium with 2% glucose and ampicillin (100 mg/L). Such plates were incubated for further 2 days at 30° C. to allow yeast growth. Subsequently, colony PCR was performed followed by sequence analysis to identify amino acid changes in the plectasin sequence.
An activity of 2 corresponds to the activity of Plectasin. An activity of 3 is better than Plectasin, and 1 is worse than Plectasin.

Sequence	Activity (antimicrobial activity relative to the activity of plectasin)
GFGCNGPWDEDDMQCHNHCKSIKGLKGGYCAKGGFVCKCY [Mutation Y25L]	2
GFGCNGPWDEDDMQCHNHCKSIKGYKGGYCIKGGFVCKCY [Mutation A31I]	2
GFGCNGPWDEDDMQCHNHCKSIKGYKGGYCQKGGFVCKCY [Mutation A31Q]	3
GFGCNGPWDEDDMQCHNHCKSIKGYKGGHCAKGGFVCKCY [Mutation Y29H]	2
GFGCNGPWDEDDMQCHNHCKSIKGYKGGYCHKGGFVCKCY [Mutation A31H]	2
GFGCNGPWDEDDMQCHNHCKSIKGKKGGYCAKGGFVCKCY [Mutation Y25K]	2
GFGCNGPWDEDDMQCHNHCKSTKGYKGGYCAKGGFVCKCY [Mutation I22T]	2
GFGCNGPWDEDDMQCHNHCKSIKGYKGGYCAKGGVVCKCY [Mutation F35V]	2
GFGCNGPWDESDMQCHNHCKSIKGYKGGYCAKGGFVCKCY [Mutation D11S]	3
GFGCNGPWDEDDMPCHNHCKSIKGYKGGYCAKGGFVCKCY [Mutation Q14P]	2
GFGCNGPWDEDDYQCHNHCKSIKGYKGGYCAKGGFVCKCY [Mutation M13Y]	2
GFGCNGPWDEDDMQCHNHCKSIKFYKGGYCAKGGFVCKCY [Mutation G24F]	2
GFGCNGAWDEDDMQCHNHCKSIKGYKGGYCAKGGFVCKCY [Mutation P7A]	2
GFGCNGPWDEVDMQCHNHCKSIKGYKGGYCAKGGFVCKCY [Mutation D11V]	3
GFGCNGPWDEDDMQCHNVCKSIKGYKGGYCAKGGFVCKCY [Mutation H18V]	2
GFGCNGPWDEDDMQCHNHCKSIKQYKGGYCAKGGFVCKCY [Mutation G24Q]	2
GFGCNGPWDEDDMTCHNHCKSIKGYKGGYCAKGGFVCKCY [Mutation Q14T]	2
GFGCNGPWDEDDMQCHNHCKSIKGYKGGSCAKGGFVCKCY [Mutation Y29S]	2
GFGCNGPWDEDDMQCHNHCKSIKGYKGGYCAKTGFVCKCY [Mutation G33T]	2
GFGCNGPWDEADMQCHNHCKSIKGYKGGYCAKGGFVCKCY [Mutation D11A]	2

Sequence	Activity (antimicrobial activity relative to the activity of plectasin)
GFGCNKPWDEDDMQCHNHCKSIKGYKGGYCAKGGFVCKCY [Mutation G6K]	2
GFGCNGPWDEDDMQCHNHCKSIKGYKGGYCAKGGLVCKCY [Mutation F35L]	3
GFGCNGPWDGDDMQCHNHCKSIKGYKGGYCAKGGFVCKCY [Mutation E10G]	3
GFGCNGPWDEDDMQCHNHCKSIKGYKGGYCAKGGFICKCY [Mutation V36I]	2
GFGCNGPWDEDDMQCHNTCKSIKGYKGGYCAKGGFVCKCY [Mutation H18T]	2
GFGCNGPWDEDDMQCHNHCKSIKIYKGGYCAKGGFVCKCY [Mutation G24I]	2
GFGCNGPWDEDDMKCHNHCKSIKGYKGGYCAKGGFVCKCY [Mutation Q14K]	2
GFGCNGPWDEDDMQCHNHCKSIKGYKGGYCAKEGFVCKCY [Mutation G33E]	2
GFGCNGPWDEDDMQCHNHCKSIKTYKGGYCAKGGFVCKCY [Mutation G24T]	2
GFGCNGPWDEDDMQCHNHCKSIKGYKGGYCARGGFVCKCY [Mutation K32R]	2
GFGCNGPWDEDDMQCHNHCKSIKGYKGGYCAKGGFQCKCY [Mutation V36Q]	2
GFGCNGPWDEDDMQCHNHCKSIKGYKGGYCAKGGFKCKCY [Mutation V36K]	2
GFGCNGPWDEDDMACHNHCKSIKGYKGGYCAKGGFVCKCY [Mutation Q14A]	2
GFGCNGPWDEDDMQCHNHCKSIKGMKGGYCAKGGFVCKCY [Mutation Y25M]	2
GFGCNGPWDEGDMQCHNHCKSIKGYKGGYCAKGGFVCKCY [Mutation D11G]	3
GFGCNGPWDEDDMQCHNHCKSIKGYKGGYCAKGGHVCKCY [Mutation F35H]	2
GFGCNGPWDEDDMQCHNHCKSIKGYKGGYCAKGKFVCKCY [Mutation G34K]	3
GFGCNGPWDEDDMQCHNHCKSIKGYKGGYCAKRGFVCKCY [Mutation G33R]	3
GFGCNGPWDEDDMQCHNQCKSIKGYKGGYCAKGGFVCKCY [Mutation H18Q]	2
GFGCNGPWDEDDMQCHNHCKSIKKYKGGYCAKGGFVCKCY [Mutation G24K]	3

Sequence	Activity (antimicrobial activity relative to the activity of plectasin)
GFGCNGPWDEDDMQCHNHCKSIKAYKGGYCAKGGFVCKCY [Mutation G24A]	2
GFGCNGLWDEDDMQCHNHCKSIKGYKGGYCAKGGFVCKCY [Mutation P7L]	2
GFGCNGPWDEDDMVCHNHCKSIKGYKGGYCAKGGFVCKCY [Mutation Q14V]	2
GFGCNGPWDLDDMQCHNHCKSIKGYKGGYCAKGGFVCKCY [Mutation E10L]	2
GFGCNGPWDEDDMSCHNHCKSIKGYKGGYCAKGGFVCRCY [Q14S + K38R]	2
GFGCNGPWFEDDMQCHNHCKSIKGYKGGYCAKGGFVCKCY [Mutation D9F]	3
GFGCNGPWTEDDMQCHNHCKSIKGYKGGYCAKGGFVCKCY [Mutation D9T]	3
GFGCNAPWDEDDMQCHNHCKSIKGYKGGYCAKGGFVCKCY [Mutation G6A]	2
GFGCNGPWDECDMQCHNHCKSIKGYKGGYCAKGGFVCKCY [Mutation D11C]	2
GFGCNGPWLEDDMQCHNHCKSIKGYKGGYCAKGGFVCKCY [Mutation D9L]	3
GFGCLGPWDEDDMQCHNHCKSIKGYKGGYCAKGGFVCKCY [Mutation N5L]	2
GFGCNGPWDEDDMQCHNHCKSIKPYKGGYCAKGGFVCKCY [Mutation G24P]	2
GFGCNGPWDERDIQCHNHCKSIKGYKGGYCAKGGFVCKCY [D11R + M13I]	3
GFGCNGPWDEDDMQCHNHCKSIKGYTGGYCAKGGFVCKCY [Mutation K26T]	2
GFGCNGPWDEDDMQCHNHCKSIKGYKGGYCAKNGFVCKCY [Mutation G33N]	2
GFGCNGPWDGDDMRCHNHCKSIKGYKGGYCAKGGFVCKCY [E10G + Q14R]	3
GFGCNGPWDEWDMQCHNHCKSIKGYKGGYCAKGGFVCKCY [Mutation D11W]	3
GFGCNGPWWEDDMQCHNHCKSIKGYKGGYCAKGGFVCKCY [Mutation D9W]	2
GFGCNGPWDEDDMQCHNHCKSIKGVKGGYCAKGGFVCKCY [Mutation Y25V]	2
GFGCNGPWNEDDMQCHNHCKSIKGYKGGYCAKGGFVCKCY [Mutation D9N]	3
